Measured values reported in patent US20240408169A1 (priority 2023, published 2024).
*1 amine or outer side, *2 acyl side, *3 side chain or, on linkers, in order; H or OH if unused. Where a SMILES comes first, the peptide text is derived from it. Bridges are numbered along the chain shown (N, C = ends). [ ]: non-standard residue; d: D form. The star is where a group is joined. X119 = CC(=O)N1C2C=C(c3ccc(F)cc3C[C@@H](C(=O)[*:2])N(C)[*:1])CC1COC2; NMeAla(5-Cl-2-cPrO-3-pyridyl) = CN[C@@H](Cc1cc(Cl)cnc1OC1CC1)C(=O)O; X151 = CN([C@@H](Cc1cc(Cl)ccc1-c1cnn(C2CCC2)c1)C(=O)[*:2])[*:1]; X26 = CN([C@@H](Cc1cc(F)ccc1-c1cnn(C2CC2)c1)C(=O)[*:2])[*:1]; NMehhhLys(Me) = CN([C@@H](CCCCCCCN(C)[*:3])C(=O)[*:2])[*:1]; NMe3Pal(2-OiPr,5-Cl) = CN[C@@H](Cc1cc(Cl)cnc1OC(C)C)C(=O)O; NMe3Pal(2-OcPr,5-F) = CN[C@@H](Cc1cc(F)cnc1OC1CC1)C(=O)O; NMe(hhhLys) = CN([C@@H](CCCCCCCN[*:3])C(=O)[*:2])[*:1]; Cyclobutanecarbonyl(1-CF3) = O=C(C1(C(F)(F)F)CCC1)*; cBuCO(3,3-F2-1-CF3) = O=C(C1(C(F)(F)F)CC(F)(F)C1)*; X161 = Cc1ccc(F)cc1C[C@@H](C(=O)[*:2])N(C)[*:1]; Pro(trans-4-F) = O=C(O)[C@@H]1C[C@@H](F)CN1; Gly(cPr) = N[C@H](C(=O)O)C1CC1; X129 = N#CC1(C(=O)*)CCC1

Tests used:
CyclinE1/CDK2 = molecular target: T1, CyclinE1/CDK2 (Homo sapiens, UniProt P24864); assay: Fluorescence Polarization (FP) competitive binding assay, Cyclin E1/Cdk2; conditions: 10 nM Cyclin E1/Cdk2, 2 nM FAM probe; average of 2-3 independent experiments; read-out: Cyclin E FP IC50;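 further: readings taken after two-hour equilibration at room temperature in HEPES buffer with NaCl, DTT, NP-40 and BSA, IC50 fitted from eight-concentration serial dilution series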
T1 construct: purchased Eurofins, discovery 14-475

OVCAR3 cells = assay: MTT proliferation assay, OVCAR3; assay type: cell-based; conditions: 5 days compound exposure, 1:3 serial dilution starting at 10 μM;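 further: compound given as an 8- or 10-point series, one day after plating, with exposure covering roughly 3-4 cell doublings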
CyclinA2/CDK2 = molecular target: T2, CyclinA2/CDK2 (Homo sapiens, UniProt P20248); assay: Fluorescence Polarization (FP) competitive binding assay, Cyclin A2/Cdk2; conditions: 8 nM Cyclin A2/Cdk2, 2 nM FAM probe; average of 2-3 independent experiments; read-out: Cyclin A FP IC50;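 further: plates equilibrated two hours at room temperature before polarization reading, IC50 fitted from eight-concentration compound titration curves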
T2 construct: purchased CRELUX Protein Services

CyclinB1/CDK1 = molecular target: T3, CyclinB1/CDK1 (Homo sapiens, UniProt P14635); assay: Fluorescence Polarization (FP) competitive binding assay, Cyclin B1/Cdk1; conditions: 10 nM Cyclin B1/Cdk1, 2 nM FAM probe; average of 2-3 independent experiments; read-out: Cyclin B FP IC50;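 further: fluorescence polarization read after equilibration at room temperature, with IC50 taken from serially diluted dose-response curves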
T3 construct: purchased Eurofins, discovery 14-450

NCI-H1048 cells = assay: MTT proliferation assay, NCI-H1048; assay type: cell-based; conditions: 5 days compound exposure, 1:3 serial dilution starting at 10 μM;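 further: Dose-response in 96-well plates over 8 or 10 concentration points, with exposure spanning 3-4 cell doublings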

SMILES | IC50 (CyclinE1/CDK2) [nM] | GI50 (OVCAR3 cells) [nM] | IC50 (CyclinA2/CDK2) [nM] | IC50 (CyclinB1/CDK1) [nM] | GI50 (NCI-H1048 cells) [nM]
CC(C)C[C@@H]1NC(=O)[C@@H](N(C)C(=O)[C@@H](NC(=O)[C@@H]2C[C@@H](F)CN2C(=O)C2(C(F)(F)F)CC(F)(F)C2)C2CC2)CCCCCCCNC(=O)[C@H](Cc2cc(Cl)cnc2OC2CC2)N(C)C1=O [Example 103] ({cBuCO(3,3-F2-1-CF3)}-[Pro(trans-4-F)][Gly(cPr)][NMe(hhhLys)]L[NMeAla(5-Cl-2-cPrO-3-pyridyl)]; lactam 3-C) | 350 | 50 | 60 | 20 | 30
CC(C)C[C@@H]1NC(=O)[C@@H](N(C)C(=O)[C@@H](NC(=O)[C@@H]2C[C@@H](F)CN2C(=O)C2(C(F)(F)F)CC(F)(F)C2)C2CC2)CC=CCCCCN(C)C(=O)[C@H](Cc2cc(Cl)cnc2OC2CC2)N(C)C1=O [Example 104] | 490 | 260 | 160 | 20 | 160
CC(C)C[C@@H]1NC(=O)[C@@H](N(C)C(=O)[C@@H](NC(=O)[C@@H]2C[C@@H](F)CN2C(=O)C2(C(F)(F)F)CCC2)C2CC2)CCCCCCCNC(=O)[C@H](Cc2cc(Cl)cnc2OC2CC2)N(C)C1=O [Example 108] ({Cyclobutanecarbonyl(1-CF3)}-[Pro(trans-4-F)][Gly(cPr)][NMe(hhhLys)]L[NMeAla(5-Cl-2-cPrO-3-pyridyl)]; lactam 3-C) | 180 | 30 | 50 | 20 | 20
CC(C)C[C@@H]1NC(=O)[C@@H](N(C)C(=O)[C@@H](NC(=O)[C@@H]2C[C@@H](F)CN2C(=O)C2(C(F)(F)F)CC(F)(F)C2)C2CC2)CCCCCCCN(C)C(=O)[C@H](Cc2cc(Cl)ccc2-c2cnn(C3CCC3)c2)N(C)C1=O [Example 112] ({cBuCO(3,3-F2-1-CF3)}-[Pro(trans-4-F)][Gly(cPr)][NMehhhLys(Me)]L[X151]; lactam 3-C) | 340 | 10 | 20 | 20 | 10
Cc1nnc(-c2ccc(Cl)cc2C[C@H]2C(=O)N(C)CCCCC=CC[C@H](N(C)C(=O)[C@@H](NC(=O)[C@@H]3C[C@@H](F)CN3C(=O)C3(C(F)(F)F)CC(F)(F)C3)C3CC3)C(=O)N[C@@H](CC(C)C)C(=O)N2C)o1 [Example 116] | 330 | 50 | 40 | 20 | 40
CC(C)C[C@@H]1NC(=O)[C@@H](N(C)C(=O)[C@@H](NC(=O)[C@@H]2C[C@@H](F)CN2C(=O)C2(C#N)CCC2)C2CC2)CCCCCCCN(C)C(=O)[C@H](Cc2cc(F)ccc2-c2cnn(C3CC3)c2)N(C)C1=O [Example 122] (X129-[Pro(trans-4-F)][Gly(cPr)][NMehhhLys(Me)]L[X26]; lactam 3-C) | 100 | 50 | 20 | 20 | 50
Cc1ccc(F)cc1C[C@H]1C(=O)N(C)CCCCCCC[C@H](N(C)C(=O)[C@@H](NC(=O)[C@@H]2C[C@@H](F)CN2C(=O)C2(C(F)(F)F)CC(F)(F)C2)C2CC2)C(=O)N[C@@H](CC(C)C)C(=O)N1C [Example 123] ({cBuCO(3,3-F2-1-CF3)}-[Pro(trans-4-F)][Gly(cPr)][NMehhhLys(Me)]L[X161]; lactam 3-C) | 120 | 20 | 30 | 20 | 20
CC(=O)N1C2C=C(c3ccc(F)cc3C[C@H]3C(=O)N(C)CCCCCCC[C@H](N(C)C(=O)[C@@H](NC(=O)[C@@H]4C[C@@H](F)CN4C(=O)C4(C(F)(F)F)CC(F)(F)C4)C4CC4)C(=O)N[C@@H](CC(C)C)C(=O)N3C)CC1COC2 (stereo partly drawn) [Example 124] ({cBuCO(3,3-F2-1-CF3)}-[Pro(trans-4-F)][Gly(cPr)][NMehhhLys(Me)]L[X119]; lactam 3-C) | 540 | 20 | 20 | 20 | 20
CC(C)C[C@@H]1NC(=O)[C@@H](N(C)C(=O)[C@@H](NC(=O)[C@@H]2C[C@@H](F)CN2C(=O)C2(C(F)(F)F)CC(F)(F)C2)C2CC2)CC=CCCCCNC(=O)[C@H](Cc2cc(F)cnc2OC2CC2)N(C)C1=O [Example 125] | 1140 | 550 | 1010 | 20 | 490
CC(C)C[C@@H]1NC(=O)[C@@H](N(C)C(=O)[C@@H](NC(=O)[C@@H]2C[C@@H](F)CN2C(=O)C2(C(F)(F)F)CC(F)(F)C2)C2CC2)CC=CCCCCN(C)C(=O)[C@H](Cc2cc(F)cnc2OC2CC2)N(C)C1=O [Example 126] | 620 | 310 | 500 | 20 | 380
CC(C)C[C@@H]1NC(=O)[C@@H](N(C)C(=O)[C@@H](NC(=O)[C@@H]2C[C@@H](F)CN2C(=O)C2(C(F)(F)F)CC(F)(F)C2)C2CC2)CCCCCCCNC(=O)[C@H](Cc2cc(F)cnc2OC2CC2)N(C)C1=O [Example 127] ({cBuCO(3,3-F2-1-CF3)}-[Pro(trans-4-F)][Gly(cPr)][NMe(hhhLys)]L[NMe3Pal(2-OcPr,5-F)]; lactam 3-C) | 230 | 30 | 80 | 20 | 30
CC(C)C[C@@H]1NC(=O)[C@@H](N(C)C(=O)[C@@H](NC(=O)[C@@H]2C[C@@H](F)CN2C(=O)C2(C(F)(F)F)CC(F)(F)C2)C2CC2)CCCCCCCN(C)C(=O)[C@H](Cc2cc(F)cnc2OC2CC2)N(C)C1=O [Example 128] ({cBuCO(3,3-F2-1-CF3)}-[Pro(trans-4-F)][Gly(cPr)][NMehhhLys(Me)]L[NMe3Pal(2-OcPr,5-F)]; lactam 3-C) | 190 | 30 | 80 | 20 | 30
CC(C)C[C@@H]1NC(=O)[C@@H](N(C)C(=O)[C@@H](NC(=O)[C@@H]2C[C@@H](F)CN2C(=O)C2(C(F)(F)F)CC(F)(F)C2)C2CC2)CCCCCCCNC(=O)[C@H](Cc2cc(Cl)cnc2OC(C)C)N(C)C1=O [Example 131] ({cBuCO(3,3-F2-1-CF3)}-[Pro(trans-4-F)][Gly(cPr)][NMe(hhhLys)]L[NMe3Pal(2-OiPr,5-Cl)]; lactam 3-C) | 240 | 400 | 30 | 20 | 290
CC(C)C[C@@H]1NC(=O)[C@@H](N(C)C(=O)[C@@H](NC(=O)[C@@H]2C[C@@H](F)CN2C(=O)C2(C(F)(F)F)CCC2)C2CC2)CC=CCCCCNC(=O)[C@H](Cc2cc(F)cnc2OC2CC2)N(C)C1=O [Example 132] | 450 | 380 | 710 | 20 | 570
CC(C)C[C@@H]1NC(=O)[C@@H](N(C)C(=O)[C@@H](NC(=O)[C@@H]2C[C@@H](F)CN2C(=O)C2(C(F)(F)F)CCC2)C2CC2)CC=CCCCCN(C)C(=O)[C@H](Cc2cc(F)cnc2OC2CC2)N(C)C1=O [Example 133] | 340 | 260 | 470 | 20 | 340
CC(C)C[C@@H]1NC(=O)[C@@H](N(C)C(=O)[C@@H](NC(=O)[C@@H]2C[C@@H](F)CN2C(=O)C2(C(F)(F)F)CCC2)C2CC2)CCCCCCCNC(=O)[C@H](Cc2cc(F)cnc2OC2CC2)N(C)C1=O [Example 134] ({Cyclobutanecarbonyl(1-CF3)}-[Pro(trans-4-F)][Gly(cPr)][NMe(hhhLys)]L[NMe3Pal(2-OcPr,5-F)]; lactam 3-C) | 120 | 40 | 100 | 20 | 30
CC(C)C[C@@H]1NC(=O)[C@@H](N(C)C(=O)[C@@H](NC(=O)[C@@H]2C[C@@H](F)CN2C(=O)C2(C(F)(F)F)CCC2)C2CC2)CCCCCCCN(C)C(=O)[C@H](Cc2cc(F)cnc2OC2CC2)N(C)C1=O [Example 135] ({Cyclobutanecarbonyl(1-CF3)}-[Pro(trans-4-F)][Gly(cPr)][NMehhhLys(Me)]L[NMe3Pal(2-OcPr,5-F)]; lactam 3-C) | 120 | 20 | 80 | 20 | 30
